Legend:
[1] = target: T1, human CRTH2 (Homo sapiens, UniProt Q9Y5Y4, V204A); assay: Receptor binding assay: [3H]PGD2 competition binding on whole COS-7 cells transiently transfected with CRTH2 (also stable HEK293 cells); set-up: expressed in transfected cells; host or cells: COS-7 (transient, calcium phosphate)
T1 sequence (Q9Y5Y4 1-395 V204A): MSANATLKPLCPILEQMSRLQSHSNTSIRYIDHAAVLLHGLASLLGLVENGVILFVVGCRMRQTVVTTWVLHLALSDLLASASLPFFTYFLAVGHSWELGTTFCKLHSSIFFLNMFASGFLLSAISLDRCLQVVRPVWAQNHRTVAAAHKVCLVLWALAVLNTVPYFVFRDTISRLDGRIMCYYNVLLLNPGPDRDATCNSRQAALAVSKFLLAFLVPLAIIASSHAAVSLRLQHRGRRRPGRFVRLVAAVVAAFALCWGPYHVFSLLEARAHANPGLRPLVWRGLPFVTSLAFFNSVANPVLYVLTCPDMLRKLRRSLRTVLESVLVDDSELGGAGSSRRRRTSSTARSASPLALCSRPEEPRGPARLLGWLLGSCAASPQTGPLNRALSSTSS
Procedure, shortened: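 Whole COS-7 cells transiently transfected with human CRTH2 (calcium phosphate), or stable HEK293 cells, competed against 0.1 nM [3H]PGD2 in HBSS/10 mM HEPES with 1% DMSO, 3 h at 4 °C. Nonspecific binding with 10 μM PGD2; scintillation counting, duplicates. IC50 from curve fitting.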

[2] = target: T1, human CRTH2; assay: Functional antagonist BRET assay on HEK293 cells stably expressing human CRTH2-Rluc and GFP2-β-arr2; format: cell-based; set-up: expressed in transfected cells; details: read-out: Antag. IC50
Procedure, shortened: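 Cells (2×10^6/mL in D-PBS with glucose) were preincubated 15 min with antagonist at 1% DMSO, then agonist and DeepBlueC were co-injected. Emission at 400 and 515 nm was read 5 s later, and the mBRET ratio (515/400 nm) was used to derive IC50 from concentration–response curves.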

[3] = receptor binding assay, Table 3
[4] = functional antagonist assay, Table 3
[5] = competition with 0.1 nM [3H]PGD2, whole cells, 3 h at 4° C.
[6] = BRET, antagonist incubated 15 minutes prior to agonist

IC50 [1, 3]	IC50 [2, 4]	IC50 [1, 5]	IC50 [2, 6]	Compound
< 500 nM	< 500 nM			COc1cccc(-c2noc(-c3cc(Br)ccc3OCC(=O)O)n2)c1 [D104, {4-Bromo-2-[3-(3-methoxyphenyl)-[1,2,4]oxadiazol-5-yl]phenoxy}acetic acid]
< 500 nM	< 500 nM			O=C(O)COc1ccc(Br)cc1-c1nc(-c2cccc(Cl)c2)no1 [D105, {4-Bromo-2-[3-(3-chlorophenyl)-[1,2,4]oxadiazol-5-yl]phenoxy}acetic acid]
< 500 nM	< 500 nM			O=C(O)COc1ccc(Br)cc1-c1nc(-c2ccccc2Cl)no1 [D108, {4-Bromo-2-[3-(2-chlorophenyl)-[1,2,4]oxadiazol-5-yl]phenoxy}acetic acid]
< 500 nM	> 5000 nM			O=C(O)COc1ccc(Br)cc1-c1nc(-c2cc(C(F)(F)F)cc(C(F)(F)F)c2)no1 [D109, {2-[3-(3,5-Bis-trifluoromethyl-phenyl)-[1,2,4]oxadiazol-5-yl]-4-bromo-phenoxy}-acetic acid]
< 500 nM	< 500 nM			O=C(O)COc1ccc(Br)cc1-c1nc(Cc2ccc(Cl)cc2)no1 [D114, {4-Bromo-2-[3-(4-chloro-benzyl)-[1,2,4]oxadiazol-5-yl]-phenoxy}-acetic acid]
< 500 nM	< 500 nM			O=C(O)COc1ccc(Br)cc1-c1nc(Cc2ccccc2)no1 [D115, [2-(3-Benzyl-[1,2,4]oxadiazol-5-yl)-4-bromo-phenoxy]-acetic acid]
< 500 nM	< 500 nM			O=C(O)COc1ccc(Br)cc1-c1nc(Cc2ccc(F)cc2)no1 [D116, {4-Bromo-2-[3-(4-fluoro-benzyl)-[1,2,4]oxadiazol-5-yl]-phenoxy}-acetic acid]
< 500 nM	< 500 nM			COc1ccc(Cc2noc(-c3cc(Br)ccc3OCC(=O)O)n2)cc1 [D118, {4-Bromo-2-[3-(4-methoxy-benzyl)-[1,2,4]oxadiazol-5-yl]-phenoxy}-acetic acid]
< 500 nM	< 500 nM			O=C(O)COc1ccc(Br)cc1-c1nc(Cc2ccccc2Cl)no1 [D120, {4-Bromo-2-[3-(2-chloro-benzyl)-[1,2,4]oxadiazol-5-yl]-phenoxy}-acetic acid]
< 500 nM	< 500 nM			O=C(O)COc1ccc(Br)cc1-c1nc(Cc2c(Cl)cccc2Cl)no1 [D121, {4-Bromo-2-[3-(2,6-dichloro-benzyl)-[1,2,4]oxadiazol-5-yl]-phenoxy}-acetic acid]
< 500 nM	< 500 nM			O=C(O)COc1ccc(Br)cc1-c1nc(Cc2ccc(Cl)c(Cl)c2)no1 [D123, {4-Bromo-2-[3-(3,4-dichlorobenzyl)-[1,2,4]oxadiazol-5-yl]-phenoxy}acetic acid]
< 500 nM	> 5000 nM			COc1cccc(Cc2noc(-c3cc(Br)ccc3OCC(=O)O)n2)c1 [D125, {4-Bromo-2-[3-(3-methoxybenzyl)-[1,2,4]oxadiazol-5-yl]phenoxy}acetic acid]
< 500 nM	< 500 nM			Cc1ccc(Cc2noc(-c3cc(Br)ccc3OCC(=O)O)n2)cc1 [D126, {4-Bromo-2-[3-(4-methylbenzyl)-[1,2,4]oxadiazol-5-yl]phenoxy}acetic acid]
< 500 nM	< 500 nM			O=C(O)COc1ccc(Br)cc1-c1nc(Cc2ccccc2C(F)(F)F)no1 [D127, {4-Bromo-2-[3-(2-trifluoromethylbenzyl)-[1,2,4]oxadiazol-5-yl]phenoxy}-acetic acid]
< 500 nM	500 to 5000 nM			COc1cc(Cc2noc(-c3cc(Br)ccc3OCC(=O)O)n2)cc(OC)c1 [D128, {4-Bromo-2-[3-(3,5-dimethoxybenzyl)-[1,2,4]oxadiazol-5-yl]phenoxy}acetic acid]
< 500 nM	< 500 nM			O=C(O)COc1ccc(Br)cc1-c1nc(Cc2cccc(Cl)c2)no1 [D130, {4-Bromo-2-[3-(3-chlorobenzyl)-[1,2,4]oxadiazol-5-yl]phenoxy}acetic acid]
< 500 nM	< 500 nM			CC(=O)Nc1ccc(Cc2noc(-c3cc(Br)ccc3OCC(=O)O)n2)cc1 [D131, {2-[3-(4-Acetylaminobenzyl)-[1,2,4]oxadiazol-5-yl]-4-bromophenoxy}acetic acid]
		< 500 nM	< 500 nM	COc1ccc(-c2ccc(-c3nc(-c4cc(Br)ccc4OCC(=O)O)no3)cc2)cc1 [D134, {4-Bromo-2-[5-(4′-methoxybiphenyl-4-yl)-[1,2,4]oxadiazol-3-yl]phenoxy}acetic acid]
		< 500 nM	< 500 nM	O=C(O)COc1ccc(Br)cc1-c1noc(-c2cccc(Cl)c2)n1 [D136, {4-Bromo-2-[5-(3-chlorophenyl)-[1,2,4]oxadiazol-3-yl]phenoxy}acetic acid]
		< 500 nM	> 5000 nM	O=C(O)COc1ccc(Br)cc1-c1noc(-c2ccccc2)n1 [D138, [4-Bromo-2-(5-phenyl-[1,2,4]oxadiazol-3-yl)phenoxy]acetic acid]

More lines, now with the values behind:

Compound	IC50 [1, 3]	IC50 [2, 4]	IC50 [1, 5]	IC50 [2, 6]
O=C(O)COc1ccc(Br)cc1-c1nc(-c2ccc(OC(F)(F)F)cc2)no1 [D103, {4-Bromo-2-[3-(4-trifluoromethoxyphenyl)-[1,2,4]oxadiazol-5-yl]phenoxy}acetic acid]	< 500 nM	< 500 nM		
O=C(O)COc1ccc(Br)cc1-c1nc(-c2ccc(C(F)(F)F)cc2)no1 [D106, {4-Bromo-2-[3-(4-trifluoromethyl-phenyl)-[1,2,4]oxadiazol-5-yl]phenoxy}-acetic acid]	< 500 nM	< 500 nM		
COc1ccccc1-c1noc(-c2cc(Br)ccc2OCC(=O)O)n1 [D107, {4-Bromo-2-[3-(2-methoxyphenyl)-[1,2,4]oxadiazol-5-yl]phenoxy}acetic acid]	< 500 nM	< 500 nM		
O=C(O)COc1ccc(Br)cc1-c1nc(-c2c(Cl)cccc2Cl)no1 [D110, {4-Bromo-2-[3-(2,6-dichlorophenyl)-[1,2,4]oxadiazol-5-yl]phenoxy}acetic acid]	< 500 nM	< 500 nM		
O=C(O)COc1ccc(Br)cc1-c1nc(-c2ccc(Oc3ccccc3)cc2)no1 [D111, {4-Bromo-2-[3-(4-phenoxy-phenyl)-[1,2,4]oxadiazol-5-yl]-phenoxy}-acetic acid]	< 500 nM	< 500 nM		
O=C(O)COc1ccc(Br)cc1-c1nc(-c2cccc(C(F)(F)F)c2)no1 [D112, {4-Bromo-2-[3-(3-trifluoromethylphenyl)-[1,2,4]oxadiazol-5-yl]phenoxy}-acetic acid]	< 500 nM	< 500 nM		
O=C(O)COc1ccc(Br)cc1-c1nc(Cc2ccc(OC(F)(F)F)cc2)no1 [D113, {4-Bromo-2-[3-(4-trifluoromethoxy-benzyl)-[1,2,4]oxadiazol-5-yl]-phenoxy}-acetic acid]	< 500 nM	< 500 nM		
O=C(O)COc1ccc(Br)cc1-c1nc(Cc2cc(F)cc(F)c2)no1 [D117, {4-Bromo-2-[3-(3,5-difluoro-benzyl)-[1,2,4]oxadiazol-5-yl]-phenoxy}-acetic acid]	< 500 nM	< 500 nM		
COc1ccccc1Cc1noc(-c2cc(Br)ccc2OCC(=O)O)n1 [D119, {4-Bromo-2-[3-(2-methoxy-benzyl)-[1,2,4]oxadiazol-5-yl]-phenoxy}-acetic acid]	< 500 nM	< 500 nM		
O=C(O)COc1ccc(Br)cc1-c1nc(Cc2ccc(Cl)cc2Cl)no1 [D122, {4-Bromo-2-[3-(2,4-dichloro-benzyl)-[1,2,4]oxadiazol-5-yl]-phenoxy}-acetic acid]	< 500 nM	< 500 nM		
COc1ccc(Cc2noc(-c3cc(Br)ccc3OCC(=O)O)n2)cc1OC [D124, {4-Bromo-2-[3-(3,4-dimethoxybenzyl)-[1,2,4]oxadiazol-5-yl]phenoxy}-acetic acid]	< 500 nM	< 500 nM		
O=C(O)COc1ccc(Br)cc1-c1nc(-c2ccc(Cl)cc2Cl)no1 [D129, {4-Bromo-2-[3-(2,4-dichlorophenyl)-[1,2,4]oxadiazol-5-yl]phenoxy}acetic acid]	< 500 nM	< 500 nM		
O=C(O)COc1ccc(Br)cc1-c1nc(C2(c3ccccc3)CC2)no1 [D132, {4-Bromo-2-[3-(1-phenylcyclopropyl)-[1,2,4]oxadiazol-5-yl]phenoxy}acetic acid]			< 500 nM	< 500 nM
O=C(O)COc1ccc(Br)cc1-c1nc(-c2ccccn2)no1 [D133, [4-Bromo-2-(3-pyridin-[1,2,4]oxadiazol-5-yl)phenoxy]acetic acid]			< 500 nM	> 5000 nM
O=C(O)COc1ccc(Br)cc1-c1noc(-c2ccc(Cl)cc2)n1 [D135, {4-Bromo-2-[5-(4-chlorophenyl)-[1,2,4]oxadiazol-3-yl]phenoxy}acetic acid]			< 500 nM	< 500 nM
O=C(O)COc1ccc(Br)cc1-c1noc(-c2ccccc2Cl)n1 [D137, {4-Bromo-2-[5-(2-chlorophenyl)-[1,2,4]oxadiazol-3-yl]phenoxy}acetic acid]			< 500 nM	< 500 nM
